Active and inactive are the calls of the source. The rule behind the calls is not given here.
Assays:
PC-3 [1] = test: Inhibition of PIP5K1alpha protein expression in human PC3 cells assessed as AKT phosphorylation at Ser473 residues at 50 uM incubated for 48 hrs by immunoblot analysis relative to control; assay type: functional; set-up: scale not given: the % may be the effect or the level left
MDA-MB-231 = test: Inhibition of cell proliferation in human MDA-MB-231 cells assessed as reduction in viable cell count at 10 to 100 uM incubated for 48 hrs; assay type: functional, cell-based
PC-3 [2] = test: Inhibition of PIP5K1alpha protein expression in human PC3 cells at 20 uM incubated for 48 hrs by immunoblot analysis; assay type: functional, cell-based
LNCaP [3] = test: Induction of apoptosis in human LNCAP cells assessed as formation of fragmented nucleus at 20 uM incubated for 48 hrs; assay type: functional, cell-based
PC-3 [4] = test: Antiproliferation activity against human PC3 cells assessed as cell proliferation at 50 uM by MTS assay; assay type: functional; conditions: read-out: Activity
PC-3 [5] = test: Inhibition of PIP5K1alpha protein expression in human PC3 cells assessed as reduction in cyclin A2 expression at 50 uM incubated for 48 hrs by immunoblot analysis relative to control; assay type: functional, cell-based
PC-3 [6] = test: Induction of apoptosis in human PC3 cells assessed as viable cells at 50 uM incubated for 48 hrs by Annexin-/7-AAD staining based FACS analysis (reference value: 94.31%); assay type: functional; conditions: PC-3, 48 h, read-out: Activity
PC-3 [7] = test: Inhibition of PKAR1alpha protein expression in human PC3 cells at 20 uM incubated for 48 hrs by immunoblot analysis; assay type: functional, cell-based
PC-3 [8] = test: Induction of apoptosis in human PC3 cells assessed as early apoptotic cells at 50 uM incubated for 48 hrs by Annexin-/7-AAD staining based FACS analysis (reference value: 2.53%); assay type: functional
PC-3 [9] = test: Induction of morphological changes in human PC3 cells assessed as reduction in cell size at 50 uM incubated for 48 hrs by live cell imaging system based assay; assay type: functional
PC-3 [10] = test: Induction of cell cycle arrest in human PC3 cells assessed as change in accumulation at G2/M phase at 50 uM incubated for 48 hrs by flow cytometry relative to control; assay type: functional
PC-3 [11] = test: Inhibition of PIP5K1alpha protein expression in human PC3 cells assessed as reduction in cyclin D1 expression at 50 uM incubated for 48 hrs by immunoblot analysis relative to control; assay type: functional, cell-based
PC-3 [12] = test: Inhibition of cell adhesion in human PC3 cells assessed as cell adhesion relative to control; assay type: functional; set-up: scale not given: the % may be the effect or the level left
Caco-2 = test: Inhibition of cell proliferation in human Caco2 cells assessed as reduction in viable cell count at 10 to 100 uM incubated for 48 hrs; assay type: functional, cell-based
U-937 = test: Inhibition of cell proliferation in human U937 cells assessed as reduction in viable cell count at 10 to 100 uM incubated for 48 hrs; assay type: functional, cell-based
PC-3 [13] = test: Antitumor activity against human PC3 cells xenografted in mouse assessed as reduction in volume at 40 mg/kg dosed every second day starting from day 0 and ending on day 20 relative to control; assay type: functional
PC-3 [14] = test: Induction of apoptosis in human PC3 cells assessed as late apoptotic cells at 50 uM incubated for 48 hrs by Annexin-/7-AAD staining based FACS analysis (reference value: 2.83%); assay type: functional
LNCaP [15] = test: Inhibition of PIP5K1alpha protein expression in human LNCAP cells at 20 uM incubated for 48 hrs by immunoblot analysis; assay type: functional, cell-based
PC-3 [16] = test: Induction of morphological changes in human PC3 cells assessed as changes in morphology at 50 uM incubated for 48 hrs by live cell imaging system based assay; assay type: functional
PC-3 [17] = test: Inhibition of PIP5K1alpha protein expression in human PC3 cells assessed as reduction in CDK1 phosphorylation at 50 uM incubated for 48 hrs by immunoblot analysis relative to control; assay type: functional, cell-based
LNCaP [18] = test: Inhibition of PSA protein expression in human LNCAP cells at 20 uM incubated for 48 hrs by immunoblot analysis; assay type: functional, cell-based
PC-3 [19] = test: Inhibition of cell invasion in human PC3 cells assessed as cell invasion relative to control; assay type: functional; set-up: scale not given: the % may be the effect or the level left
[20] = target: T1, MAP/microtubule affinity-regulating kinase 4 (Homo sapiens) (UniProt Q96L34); test: Binding affinity to human MARK4
T1 sequence (whole entry): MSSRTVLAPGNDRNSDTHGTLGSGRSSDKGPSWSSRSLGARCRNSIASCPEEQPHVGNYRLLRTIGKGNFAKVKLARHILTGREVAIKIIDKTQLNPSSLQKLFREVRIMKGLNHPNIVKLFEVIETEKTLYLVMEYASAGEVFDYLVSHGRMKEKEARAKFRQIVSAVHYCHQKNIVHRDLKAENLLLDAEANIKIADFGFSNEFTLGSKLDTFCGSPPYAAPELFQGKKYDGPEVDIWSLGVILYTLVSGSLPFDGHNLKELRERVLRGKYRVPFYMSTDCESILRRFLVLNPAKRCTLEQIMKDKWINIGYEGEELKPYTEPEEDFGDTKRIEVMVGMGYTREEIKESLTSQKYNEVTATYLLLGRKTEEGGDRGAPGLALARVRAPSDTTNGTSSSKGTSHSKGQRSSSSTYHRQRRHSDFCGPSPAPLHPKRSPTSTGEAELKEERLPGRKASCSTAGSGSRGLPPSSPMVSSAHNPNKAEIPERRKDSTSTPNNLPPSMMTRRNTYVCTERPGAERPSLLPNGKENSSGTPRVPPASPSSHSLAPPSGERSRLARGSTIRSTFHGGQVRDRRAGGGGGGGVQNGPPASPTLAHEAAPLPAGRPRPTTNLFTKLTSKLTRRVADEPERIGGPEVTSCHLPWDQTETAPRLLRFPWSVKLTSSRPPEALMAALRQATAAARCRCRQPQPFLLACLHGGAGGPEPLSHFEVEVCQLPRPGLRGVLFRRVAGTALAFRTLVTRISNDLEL

LNCaP [21] = test: Inhibition of PIP5K1alpha protein expression in human LNCAP cells assessed as reduction in AKT phosphorylation at Ser473 residues at 20 uM incubated for 48 hrs by immunoblot analysis relative to control; assay type: functional
LNCaP [22] = test: Inhibition of AR protein expression in human LNCAP cells at 20 uM incubated for 48 hrs by immunoblot analysis; assay type: functional, cell-based
PC-3 [23] = test: Inhibition of PIP5K1alpha protein expression in human PC3 cells assessed as PIP5K1alpha/beta-actin ratio level at 20 uM incubated for 48 hrs by immunoblot analysis (reference value: 9.43); assay type: functional
LNCaP [24] = test: Reduction in CDK1 protein expression in human LNCAP cells at 20 uM incubated for 48 hrs by immunoblot analysis; assay type: functional, cell-based
PC-3 [25] = test: Inhibition of PIP5K1alpha protein expression in human PC3 cells assessed as reduction in CDK1 expression at 50 uM incubated for 48 hrs by immunoblot analysis relative to control; assay type: functional, cell-based
PC-3 [26] = test: Inhibition of PIP5K1alpha protein expression in human PC3 cells assessed as reduction in cyclin B1 expression at 50 uM incubated for 48 hrs by immunoblot analysis relative to control; assay type: functional, cell-based
LNCaP [27] = test: Effect on CREB phosphorylation in human LNCAP cells at 20 uM incubated for 48 hrs by immunoblot analysis; assay type: functional, cell-based
[28] = target: Phosphatidylinositol 4-phosphate 5-kinase type-1 alpha (Homo sapiens) (UniProt Q99755); test: Binding affinity to human PIP5K1alpha
Sequence of Phosphatidylinositol 4-phosphate 5-kinase type-1 alpha (Homo sapiens) (Q99755 whole entry): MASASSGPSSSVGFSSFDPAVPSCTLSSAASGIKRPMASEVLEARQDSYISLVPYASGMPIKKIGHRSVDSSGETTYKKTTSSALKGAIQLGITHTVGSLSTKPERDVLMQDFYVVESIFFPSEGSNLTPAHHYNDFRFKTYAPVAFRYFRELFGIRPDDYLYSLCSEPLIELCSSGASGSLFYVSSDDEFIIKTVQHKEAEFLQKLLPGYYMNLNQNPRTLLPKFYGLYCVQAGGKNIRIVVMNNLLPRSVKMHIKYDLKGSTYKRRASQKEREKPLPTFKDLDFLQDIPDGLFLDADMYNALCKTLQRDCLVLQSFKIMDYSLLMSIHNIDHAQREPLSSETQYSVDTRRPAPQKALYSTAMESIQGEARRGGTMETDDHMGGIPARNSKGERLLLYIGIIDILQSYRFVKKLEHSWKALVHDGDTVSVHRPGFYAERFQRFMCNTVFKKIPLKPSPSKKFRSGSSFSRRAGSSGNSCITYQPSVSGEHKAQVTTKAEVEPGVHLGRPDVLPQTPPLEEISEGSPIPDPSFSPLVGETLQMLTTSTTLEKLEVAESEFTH

LNCaP [29] = test: Increase in p27 protein expression in human LNCAP cells at 20 uM incubated for 48 hrs by immunoblot analysis; assay type: functional, cell-based
PC-3 [30] = test: Inhibition of PIP3 protein expression in human PC3 cells at 50 uM incubated for 48 hrs by immunoblot analysis; assay type: functional, cell-based
[31] = Toxicity in mouse xenografted with human PC3 cells assessed as induction of body weight loss at 40 mg/kg co-treated with 10 mg/kg docetaxel dosed every second day starting from day 0 and ending on day 20; assay type: organism-based; conditions: in vivo
PC-3 [32] = test: Antiproliferation activity against human PC3 cells assessed as cell proliferation at 10 uM by MTS assay; assay type: functional; conditions: read-out: Activity
PC-3 [33] = test: Antitumor activity against human PC3 cells xenografted in mouse assessed as reduction in volume at 40 mg/kg co-treated with 10 mg/kg docetaxel dosed every second day starting from day 0 and ending on day 20 (reference value: 500 mm3); assay type: functional
[34] = Toxicity in mouse xenografted with human PC3 cells assessed as induction of body weight loss at 40 mg/kg dosed every second day starting from day 0 and ending on day 20; assay type: organism-based; conditions: in vivo
PC-3 [35] = test: Inhibition of PIP5K1alpha protein expression in human PC3 cells assessed as reduction in FAK phosphorylation incubated for 48 hrs by immunoblot analysis relative to control; assay type: functional, cell-based
PC-3 [36] = test: Antiproliferation activity against human PC3 cells assessed as cell proliferation at 20 uM by MTS assay; assay type: functional; conditions: read-out: Activity
[37] = target: Serine/threonine-protein kinase MARK1 (Homo sapiens) (UniProt Q9P0L2); test: Binding affinity to human MARK1
Sequence of Serine/threonine-protein kinase MARK1 (Homo sapiens) (Q9P0L2 whole entry, looked up): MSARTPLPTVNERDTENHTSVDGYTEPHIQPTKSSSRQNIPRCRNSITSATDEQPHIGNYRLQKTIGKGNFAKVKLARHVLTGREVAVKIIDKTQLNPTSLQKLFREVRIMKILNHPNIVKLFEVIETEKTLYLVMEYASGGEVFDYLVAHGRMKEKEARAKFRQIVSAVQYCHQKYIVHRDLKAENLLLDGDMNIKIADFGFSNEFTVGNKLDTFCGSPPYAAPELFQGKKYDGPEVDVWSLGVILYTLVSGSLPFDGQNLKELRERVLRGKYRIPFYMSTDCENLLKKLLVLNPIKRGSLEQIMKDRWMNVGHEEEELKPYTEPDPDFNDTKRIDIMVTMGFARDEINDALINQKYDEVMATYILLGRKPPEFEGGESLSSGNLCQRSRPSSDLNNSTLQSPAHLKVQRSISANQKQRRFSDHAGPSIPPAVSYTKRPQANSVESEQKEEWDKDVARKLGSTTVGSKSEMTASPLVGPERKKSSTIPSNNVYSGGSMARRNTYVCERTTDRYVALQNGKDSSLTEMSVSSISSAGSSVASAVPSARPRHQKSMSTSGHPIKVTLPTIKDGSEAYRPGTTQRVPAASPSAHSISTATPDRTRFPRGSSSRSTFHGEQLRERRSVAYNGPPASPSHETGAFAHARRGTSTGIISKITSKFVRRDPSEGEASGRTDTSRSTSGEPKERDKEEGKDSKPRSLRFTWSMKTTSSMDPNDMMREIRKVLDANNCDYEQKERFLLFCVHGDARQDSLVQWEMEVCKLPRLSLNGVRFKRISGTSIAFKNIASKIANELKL

PC-3 [38] = test: Inhibition of PIP5K1alpha protein expression in human PC3 cells assessed as reduction in cyclin E1 expression at 50 uM incubated for 48 hrs by immunoblot analysis relative to control; assay type: functional, cell-based
CWR22R = test: Antiproliferation activity against human 22Rv1 cells assessed as cell proliferation at 10 to 50 uM by MTS assay; assay type: functional, cell-based
LNCaP [39] = test: Inhibition of cell proliferation in human LNCAP cells assessed as reduction in viable cell count at 10 to 100 uM incubated for 48 hrs; assay type: functional, cell-based
PC-3 [40] = test: Induction of apoptosis in human PC3 cells assessed as necrotic cells at 50 uM incubated for 48 hrs by Annexin-/7-AAD staining based FACS analysis (reference value: 0.32%); assay type: functional
HCT-116 = test: Inhibition of cell proliferation in human HCT116 cells assessed as reduction in viable cell count at 10 to 100 uM incubated for 48 hrs; assay type: functional, cell-based
LNCaP [41] = test: Induction of apoptosis in human LNCAP cells assessed as formation of apoptotic bodies at 20 uM incubated for 48 hrs; assay type: functional, cell-based
LNCaP [42] = test: Reduction in SKP2 protein expression in human LNCAP cells at 20 uM incubated for 48 hrs by immunoblot analysis; assay type: functional, cell-based
LNCaP [43] = test: Inhibition of PIP5K1alpha protein expression in human LNCAP cells assessed as reduction in AKT phosphorylation at Ser473 residues at 20 uM incubated for 48 hrs by immunofluorescent analysis relative to control; assay type: functional, cell-based
PC-3 [44] = test: Inhibition of PIP5K1alpha protein expression in human PC3 cells assessed as reduction in AKT phosphorylation at Ser473 residues at 50 uM incubated for 48 hrs by immunoblot analysis relative to control; assay type: functional, cell-based

In the case of `CN1CC(=O)N2[C@H](c3c[nH]c4ccc(Cl)cc34)c3cc4c(cc3C[C@H]2C1=O)OCO4`, the Activity (PC-3 [1]) is reported as 29.77%, the inhibition (MDA-MB-231) is reported as “Active” and the inhibition (PC-3 [2]) is reported as “Active”. The Activity (LNCaP [3]) was “Active”, the growth at 50 µM (PC-3 [4]) was 21.6% and the inhibition (PC-3 [5]) was “Active”. For the same molecule, the viability at 50 µM (PC-3 [6]) was 80.2%, the inhibition (PC-3 [7]) was “inactive” and the Activity (PC-3 [8]) was 9.55%. The Activity (PC-3 [9]) was “Active”, the Activity (PC-3 [10]) was 4.96% and the inhibition (PC-3 [11]) was “Active”. For the same molecule, the Activity (PC-3 [12]) was 38.82%, the inhibition (Caco-2) was “Active” and the inhibition (U-937) was “Active”. The Activity (PC-3 [13]) was 458 mm3, the Activity (PC-3 [14]) was 9.42% and the inhibition (LNCaP [15]) was “Active”. For the same molecule, the Activity (PC-3 [16]) was “Active”, the inhibition (PC-3 [17]) was “Active” and the inhibition (LNCaP [18]) was “Active”. For the same molecule, the Activity (PC-3 [19]) was 55.96%, the Activity [20] was “Active” and the inhibition at 20 µM (LNCaP [21]) was 75.5%. For the same molecule, the inhibition (LNCaP [22]) was “Active”, the Ratio (PC-3 [23]) was 2.01 and the Activity (LNCaP [24]) was “Active”. For the same molecule, the inhibition (PC-3 [25]) was “Active”, the inhibition (PC-3 [26]) was “Active” and the Activity (LNCaP [27]) was “inactive”. The Activity [28] was “Active”, the Activity (LNCaP [29]) was “Active” and the Activity (PC-3 [30]) was “Active”. The Activity [31] was “Non-Toxic”, the growth at 10 µM (PC-3 [32]) was 58.8% and the Activity (PC-3 [33]) was 36 mm3. The Activity [34] was “Non-Toxic”, the inhibition (PC-3 [35]) was “Dose-dependent effect” and the growth at 20 µM (PC-3 [36]) was 48.6%. The Activity [37] was “Active”, the inhibition (PC-3 [38]) was “Active” and the Activity (CWR22R) was “Active”. For the same molecule, the inhibition (LNCaP [39]) was “Active”, the Activity (PC-3 [40]) was 0.8% and the inhibition (HCT-116) was “Active”. For the same molecule, the Activity (LNCaP [41]) was “Active”, the Activity (LNCaP [42]) was “Active” and the inhibition (LNCaP [43]) was “Active”.
With `CN1CC(=O)N2[C@H](c3ccc4c(c3)OCO4)c3[nH]c4ccccc4c3C[C@@H]2C1=O` the inhibition (PC-3 [44]) was “inactive”, the inhibition (LNCaP [21]) was “inactive” and the Activity (LNCaP [27]) was “inactive”.
